Source: US20230086119A1, “ANTICANCER AGENT CONTAINING RHOA PEPTIDE INHIBITOR AS AN ACTIVE INGREDIENT” (EL MED, priority 2020, published 2023)
One block for each molecule: values may come before it. Where a SMILES comes first, the peptide text is derived from it. [ ]: non-standard residue; d: D form. The star is where a group is joined. ξ: configuration not given here. Biotinyl(4ξ) = O=C1N[C@H]2CSC(CCCCC(=O)*)[C@H]2N1; pY = N[C@@H](Cc1ccc(OP(=O)(O)O)cc1)C(=O)O; ξIle = CC[C@H](C)C(N)C(=O)O

Assays:
HEK293T cells [1] = test: Cell migration by wound healing method in response to Wnt3A; format: cell-based; settings: 1 μM, Wnt3A 30 ng/ml, 48 hours, FIG. 42
[2] = target: T1, p-Tyr42 RhoA and β-catenin (Homo sapiens, UniProt P35222); test: Co-immunoprecipitation of p-Tyr42 RhoA with β-catenin after Wnt3A; format: cell-based; settings: cells pretreated with inhibitor, then Wnt3A; FIGS. 20 and 21
T1 construct: endogenous in cells
T1 sequence (P35222 2-781 limits assumed): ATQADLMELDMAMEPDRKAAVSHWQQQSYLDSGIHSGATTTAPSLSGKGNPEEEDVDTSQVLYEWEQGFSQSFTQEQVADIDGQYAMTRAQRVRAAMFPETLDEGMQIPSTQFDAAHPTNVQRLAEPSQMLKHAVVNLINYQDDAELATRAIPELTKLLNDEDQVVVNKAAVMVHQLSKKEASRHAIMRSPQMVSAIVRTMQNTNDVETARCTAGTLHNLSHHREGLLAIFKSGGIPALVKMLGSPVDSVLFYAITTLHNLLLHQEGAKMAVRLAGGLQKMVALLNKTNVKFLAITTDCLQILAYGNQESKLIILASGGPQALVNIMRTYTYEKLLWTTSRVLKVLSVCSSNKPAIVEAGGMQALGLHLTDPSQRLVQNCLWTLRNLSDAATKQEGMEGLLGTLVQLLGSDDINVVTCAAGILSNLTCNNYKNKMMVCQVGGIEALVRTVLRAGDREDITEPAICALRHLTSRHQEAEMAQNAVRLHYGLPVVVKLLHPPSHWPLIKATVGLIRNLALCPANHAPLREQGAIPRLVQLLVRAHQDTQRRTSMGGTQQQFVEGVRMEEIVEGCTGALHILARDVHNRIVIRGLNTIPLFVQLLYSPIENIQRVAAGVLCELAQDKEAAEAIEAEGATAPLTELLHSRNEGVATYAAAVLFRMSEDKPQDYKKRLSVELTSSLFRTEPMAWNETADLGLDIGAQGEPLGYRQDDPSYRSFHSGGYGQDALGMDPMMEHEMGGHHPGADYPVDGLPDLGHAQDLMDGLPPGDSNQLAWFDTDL
Protocol: (§1) HEK293T cells were collected and washed with ice-cold PBS, and dissolved with RIPA buffer (50 mM Tris-HCl (pH7.4), 150 mM NaCl, 1% Nonidet P-40, 0.25% NaN3, 1 mM EDTA, 1 mM PMSF, 1 μg/mL aprotinin, 1 μg/mL leupeptin, 1 μg/mL pepstatin, 1 mM sodium orthovanadate, and 1 mM NaF). The cell lysate was centrifuged at 13,475×g for 20 minutes and the supernatant was analyzed for protein concentration using the BCA Protein Assay Kit (Pierce; Rockford, USA). Proteins of the cell lysate were run on SDS-PAGE and transferred to a PVDF membrane (Millipore; Billerica, USA). Anti-RhoA ( 1/500), anti-actin (Santa Cruz; Dallas, Calif.), anti-GSK-3β( 1/500), anti-phospho (Ser9)-GSK-3β( 1/500) (both Cell Signaling, Beverly, USA), anti-O-catenin ( 1/1000) (Invitrogen, Carlsbad, USA), anti-active β-catenin ( 1/500) (Millipore, Billerica, USA), and anti-Tau ( 1/500) (Biosource; Camarillo, Calif.) antibodies were incubated with PVDF membranes at room temperature for 2 hours, and then each was washed 3 times for 5 minutes. Thereafter, the membrane was incubated for 1 hour with anti-rat IgG antibody or anti-mouse IgG antibody conjugated with horse radish peroxidase (HRP) (both provided by ENZO Life Science; Farmingdale, USA, 1/1000 dilution) and each was washed later three times for 10 minutes. The membrane was incubated with an enhanced chemiluminescence (ECL) reagent (Amersham; Uppsala, Sweden) and then exposed to an X-ray film. The strength of the band was quantified with the ImageJ program of the U.S. National Institutes of Health (Bethesda, USA).
1×10^7 Cells were washed with 1×PBS, and the cell lysate was prepared using cell lysis buffer (20 mM Tris pH 7.4, 120 mM NaCl, and 1% Nonidet P-40) containing 10 μg/mL each of leupeptin and aprotinin and each of NaF, Na3VO4, PMSF and 5 mM MgCl2. The lysate was used for immunoprecipitation by specific antibodies. […]

A549 cells = test: MTT proliferation with stimulants (FIG. 37); format: cell-based; settings: pre-incubated one hour, stimulant 48 hours
Protocol: (§2) The MTT assay was performed to measure the proliferation of various cancer cell lines, such as HEK293T, LN18 glioma, HepG2 liver cancer, AGS gastric cancer, and A549 lung cancer cells.

HEK293T cells [3] = test: MTT proliferation with stimulants (FIG. 37); format: cell-based; settings: pre-incubated one hour, stimulant 48 hours
Protocol: as §2

HepG2 cells [4] = test: MTT proliferation with stimulants (FIG. 37); format: cell-based; settings: pre-incubated one hour, stimulant 48 hours
Protocol: as §2

LN18 cells = test: MTT proliferation with stimulants (FIG. 37); format: cell-based; settings: pre-incubated one hour, stimulant 48 hours
Protocol: as §2

HEK293T cells [5] = test: Wnt3A-induced cell proliferation, fluorescence microscopy; format: cell-based; settings: Tat-C3 1 μg/mL, Y27632 10 μM pretreated one hour; Wnt3A 30 ng/mL two days; FIG. 6
Protocol: (§3) All cells tested were cultured in Dulbecco's Modified Eagle Medium (DMEM; Weljin, Gyeongsan) containing 5% fetal bovine serum (FBS; GIBCO, Carlsbad, USA) and 1% penicillin-streptomycin (complete medium) under 5% CO2 at 37° C.

[6] = tested on: macrophage cell line RAW264.7; test: Wnt3A-mediated cell proliferation, fluorescence microscopy; format: cell-based, mouse; settings: Tat-C3 1 μg/mL, Y27632 10 μM pretreated one hour; Wnt3A 30 ng/mL two days; FIG. 7
Protocol: as §3

cyclin D1 and c-Myc = test: Wnt3A-induced cyclin D1 and c-Myc expression, Western blotting; format: cell-based; settings: HEK293T; pretreated one hour; Wnt3A 30 ng/mL two hours; FIG. 9
Protocol: as §1, with “Thereafter, the membrane was incubated for 1 hour with anti-rat IgG antibody or anti-mouse IgG antibody conjugated with horse radish peroxidase (HRP) (both provided by ENZO Life Science; Farmingdale, USA, 1/1000 dilution) and each was washed later three times for 10 minutes. The membrane was incubated with an enhanced chemiluminescence (ECL) reagent (Amersham; Uppsala, Sweden) and then exposed to an X-ray film.” left out

HepG2 cells [7] = test: MTT proliferation, substituted amino acids of EM3 (FIGS. 39, 40); format: cell-based; settings: DMEM 2.5% FBS 48 hours, FIG. 40 legend
Protocol: FIGS. 39 and 40 show the effect of the substituted amino acids of EM3 on cell proliferation, and the present inventors have designed various peptide inhibitors replaced with other amino acids. The cells were cultured in DMEM containing 2.5% FBS for 48 hours and cell proliferation was measured by MTT assay.

HEK293T = test: MTT proliferation, FBS-stimulated (FIG. 38); format: cell-based; settings: pretreated one hour, 2% FBS 48 hours
Protocol: (§4) The MTT assay was performed to measure the proliferation of various cancer cell lines, such as HEK293T, LN18 glioma, HepG2 liver cancer, HT29 colon cancer, 4T1 mouse breast cancer, and RAW264.7 mouse macrophages.

HT29 = test: MTT proliferation, FBS-stimulated (FIG. 38); format: cell-based; settings: pretreated one hour, 2% FBS 48 hours
Protocol: as §4

HepG2 = test: MTT proliferation, FBS-stimulated (FIG. 38); format: cell-based; settings: pretreated one hour, 2% FBS 48 hours
Protocol: as §4

LN18 = test: MTT proliferation, FBS-stimulated (FIG. 38); format: cell-based; settings: pretreated one hour, 2% FBS 48 hours
Protocol: as §4

4T1 = test: MTT proliferation, FBS-stimulated (FIG. 38); format: cell-based, mouse; settings: pretreated one hour, 2% FBS 48 hours
Protocol: as §4

RAW264.7 cells = test: MTT proliferation, FBS-stimulated (FIG. 38); format: cell-based, mouse; settings: pretreated one hour, 2% FBS 48 hours
Protocol: as §4

4T1 cells = test: Xenotransplantation experiment with 4T1 cells in BALB/c mice; format: in vivo; settings: EM3 2.5 mM, 10 μL/mouse daily
Protocol: Animal care and experiments were performed by the approval of the Institutional Animal Care and Use Committee (HIRB-2016-52) of Hallym University. Male BALB/c mice (7 weeks old) were injected with 4T1 cells (5×10^5 cells in […] of 1×PBS), and randomly assigned to an EM3 treatment group (7 mice) or the control group (6 mice). The normal group also included two non-tumor mice. Cells were injected subcutaneously and EM3 (2.5 mM, 10 μL/mouse) and 1× PBS (10 μL/mouse) were applied daily. Tumor volume was measured daily and tumor weight and spleen size were measured after sacrificing the mice.

Molecule: CC[C@H](C)C(NC(=O)[C@H](CC(=O)O)NC(=O)[C@H](C)NC(=O)[C@@H](NC(=O)[C@H](Cc1ccc(O)cc1)NC(=O)[C@H](CC(N)=O)NC(=O)[C@H](CCC(=O)O)NC(=O)[C@H](Cc1ccccc1)NC(=O)[C@@H](NC(=O)[C@@H](NC(=O)CCCCC1SC[C@@H]2NC(=O)N[C@H]12)[C@@H](C)O)C(C)C)C(C)C)C(=O)N[C@@H](CCC(=O)O)C(=O)O (stereo partly shown) [EM4] ({Biotinyl(4ξ)}-TVFENYVAD[ξIle]E-OH)
migration of HEK293 cells in response to Wnt3A (HEK293T cells [1]): reducing the migration

co-immunoprecipitation of p-Tyr42 RhoA and β-catenin [2]: inhibited
Molecule: CC(C)[C@H](NC(=O)[C@H](Cc1ccc(O)cc1)NC(=O)[C@@H](N)CC(N)=O)C(=O)N[C@@H](C)C(N)=O [PR2] (H-NYVA-NH2)
proliferation of A549 cells by PMA (A549 cells): significantly inhibited
proliferation of HEK293T cells by LPS (HEK293T cells [3]): significantly inhibited
proliferation of HEK293T cells by Wnt3A (HEK293T cells [3]): significantly inhibited
proliferation of HEk293T cells by H2O2 (HEK293T cells [3]): significantly inhibited
proliferation of HepG2 cells by insulin (HepG2 cells [4]): significantly inhibited
proliferation of LN18 cells by EGF (LN18 cells): significantly inhibited

Molecule: CC(C)[C@H](NC(=O)[C@H](Cc1ccc(OP(=O)(O)O)cc1)NC(=O)[C@@H](N)CC(N)=O)C(=O)N[C@@H](C)C(N)=O [PR3] (H-N[pY]VA-NH2)
co-immunoprecipitation of p-Tyr42 RhoA and β-catenin [2]: inhibited
proliferation of A549 cells by PMA (A549 cells): significantly inhibited
proliferation of HEK293T cells by LPS (HEK293T cells [3]): significantly inhibited
proliferation of HEK293T cells by Wnt3A (HEK293T cells [3]): significantly inhibited
proliferation of HEk293T cells by H2O2 (HEK293T cells [3]): significantly inhibited
proliferation of HepG2 cells by insulin (HepG2 cells [4]): significantly inhibited
proliferation of LN18 cells by EGF (LN18 cells): significantly inhibited
migration of HEK293 cells in response to Wnt3A (HEK293T cells [1]): reducing the migration

Molecule: C[C@@H](N)[C@H]1CC[C@H](C(=O)Nc2ccncc2)CC1 [Y27632]
proliferation of HEK293T cells by Wnt3A (HEK293T cells [5]): abolished
Wnt3A-mediated proliferation in RAW264.7 [6]: inhibited
Wnt3A-increased expression of cyclin D1 and c-Myc (cyclin D1 and c-Myc): abolished this increased expression

Molecule: AYVA [HL1]
inhibitory effect on HepG2 cell proliferation, compared with EM3 (HepG2 cells [7]): less effective than EM3

Molecule: NFVA [HL7]
inhibitory effect on HepG2 cell proliferation, compared with EM3 (HepG2 cells [7]): less effective than EM3

Molecule: NYLA [HL5]
inhibitory effect on HepG2 cell proliferation, compared with EM3 (HepG2 cells [7]): less effective than EM3

co-immunoprecipitation of p-Tyr42 RhoA and β-catenin [2]: inhibited
Molecule: NYVA-NH2 [EM3]
proliferation of FBS-stimulated HEK293T cells (HEK293T): significantly inhibited
proliferation of FBS-stimulated HT29 cells (HT29): significantly inhibited
proliferation of FBS-stimulated HepG2 cells (HepG2): significantly inhibited
proliferation of FBS-stimulated LN18 cells (LN18): significantly inhibited
proliferation of FBS-stimulated 4T1 cells (4T1): significantly inhibited
proliferation of FBS-stimulated RAW264.7 cells (RAW264.7 cells): significantly inhibited
migration of HEK293 cells in response to Wnt3A (HEK293T cells [1]): reducing the migration
tumor volume (4T1 cells; 4T1 cells subcutaneous, FIG. 43A): dramatically decreased
tumor weight (4T1 cells; 4T1 cells subcutaneous, after sacrifice, FIG. 43B): dramatically decreased
spleen size (4T1 cells; 4T1 tumor, after sacrifice, FIG. 43C): same size compared to control mice

Molecule: NYVS [HL4]
inhibitory effect on HepG2 cell proliferation, compared with EM3 (HepG2 cells [7]): less effective than EM3
